Experimental findings from paper PMC7244308 (Science Advances, 2020) are described below.

For one assay, the target named is ILY (Streptococcus intermedius, UniProt Q9LCB8). The assay is described as follows: biochemical. It is filed as binding.
For assay [1], the target named is T1, SLO (Streptococcus pyogenes serotype M1, UniProt P0C0I3). The experiment in a line: biochemical. In kind it is binding.
In the next assay the target is PFO (Clostridium perfringens, UniProt P0C2E9). The assay is described as follows: biochemical. In kind it is binding.
Chain of PFO (P0C2E9 29-500 limits assumed): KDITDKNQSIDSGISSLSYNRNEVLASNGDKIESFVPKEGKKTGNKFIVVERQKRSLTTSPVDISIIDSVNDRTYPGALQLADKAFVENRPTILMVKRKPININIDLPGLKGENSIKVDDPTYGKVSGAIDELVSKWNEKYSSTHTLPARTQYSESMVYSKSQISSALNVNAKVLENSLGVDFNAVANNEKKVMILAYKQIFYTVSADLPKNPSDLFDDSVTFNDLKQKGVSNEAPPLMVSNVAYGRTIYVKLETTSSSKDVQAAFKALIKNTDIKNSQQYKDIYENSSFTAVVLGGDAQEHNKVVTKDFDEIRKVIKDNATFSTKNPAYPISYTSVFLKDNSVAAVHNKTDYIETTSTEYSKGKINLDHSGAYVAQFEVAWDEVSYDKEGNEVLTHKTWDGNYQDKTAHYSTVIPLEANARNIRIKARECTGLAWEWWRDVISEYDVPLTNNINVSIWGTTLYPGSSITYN
In another assay the target is SLY (Streptococcus suis, UniProt Q55996). It is filed as binding.
A further assay has as its target SLY D4 (Streptococcus suis, UniProt Q55996). It is filed as binding.
Another assay concerns the target Ply (Streptococcus pneumoniae, UniProt Q7ZAK5). The experiment in a line: biochemical. It is filed as binding.
Assay [2] deals with recombinant human I-domain (Homo sapiens, UniProt P11215). It is filed as binding.
Chain of recombinant human I-domain (P11215 150-328): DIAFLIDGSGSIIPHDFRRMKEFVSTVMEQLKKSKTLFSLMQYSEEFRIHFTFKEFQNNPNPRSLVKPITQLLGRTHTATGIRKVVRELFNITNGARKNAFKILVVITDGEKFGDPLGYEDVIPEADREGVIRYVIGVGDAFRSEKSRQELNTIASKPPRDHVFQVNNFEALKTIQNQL
The next assay concerns the target LLO (Listeria monocytogenes serovar 1/2a, UniProt P13128). It is filed as binding.
Assay [3] deals with T1, SLO. It is filed as cell-based.

Where two headings read alike, the source gives them in different places.

Chain of Ply (Q7ZAK5 whole entry, looked up): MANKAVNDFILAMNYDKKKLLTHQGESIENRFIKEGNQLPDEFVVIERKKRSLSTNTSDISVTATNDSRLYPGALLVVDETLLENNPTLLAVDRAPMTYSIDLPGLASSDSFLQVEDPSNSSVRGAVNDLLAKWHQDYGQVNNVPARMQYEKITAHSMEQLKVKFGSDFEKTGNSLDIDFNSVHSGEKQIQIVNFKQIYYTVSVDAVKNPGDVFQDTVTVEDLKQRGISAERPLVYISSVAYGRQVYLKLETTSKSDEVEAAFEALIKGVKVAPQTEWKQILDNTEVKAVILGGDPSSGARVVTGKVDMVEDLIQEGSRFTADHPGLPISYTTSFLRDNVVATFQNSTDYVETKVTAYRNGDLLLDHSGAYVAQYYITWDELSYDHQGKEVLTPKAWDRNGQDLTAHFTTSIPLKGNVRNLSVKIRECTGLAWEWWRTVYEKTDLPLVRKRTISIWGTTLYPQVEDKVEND
T1 sequence (P0C0I3 34-571 limits assumed): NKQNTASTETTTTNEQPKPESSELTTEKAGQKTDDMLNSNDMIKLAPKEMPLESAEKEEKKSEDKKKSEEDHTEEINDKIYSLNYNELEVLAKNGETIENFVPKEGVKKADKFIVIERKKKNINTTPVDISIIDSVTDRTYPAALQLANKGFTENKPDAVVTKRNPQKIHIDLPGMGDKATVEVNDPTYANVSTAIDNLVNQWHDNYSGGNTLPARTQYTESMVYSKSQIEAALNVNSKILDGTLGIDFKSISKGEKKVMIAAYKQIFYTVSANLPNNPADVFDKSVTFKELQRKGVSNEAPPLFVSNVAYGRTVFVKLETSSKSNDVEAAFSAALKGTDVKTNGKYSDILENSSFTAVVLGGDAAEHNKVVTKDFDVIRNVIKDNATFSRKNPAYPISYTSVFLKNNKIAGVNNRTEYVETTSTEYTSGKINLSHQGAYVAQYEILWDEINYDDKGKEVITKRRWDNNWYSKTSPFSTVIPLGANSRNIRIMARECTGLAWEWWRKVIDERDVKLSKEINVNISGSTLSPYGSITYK
Chain of LLO (P13128 25-529 limits assumed): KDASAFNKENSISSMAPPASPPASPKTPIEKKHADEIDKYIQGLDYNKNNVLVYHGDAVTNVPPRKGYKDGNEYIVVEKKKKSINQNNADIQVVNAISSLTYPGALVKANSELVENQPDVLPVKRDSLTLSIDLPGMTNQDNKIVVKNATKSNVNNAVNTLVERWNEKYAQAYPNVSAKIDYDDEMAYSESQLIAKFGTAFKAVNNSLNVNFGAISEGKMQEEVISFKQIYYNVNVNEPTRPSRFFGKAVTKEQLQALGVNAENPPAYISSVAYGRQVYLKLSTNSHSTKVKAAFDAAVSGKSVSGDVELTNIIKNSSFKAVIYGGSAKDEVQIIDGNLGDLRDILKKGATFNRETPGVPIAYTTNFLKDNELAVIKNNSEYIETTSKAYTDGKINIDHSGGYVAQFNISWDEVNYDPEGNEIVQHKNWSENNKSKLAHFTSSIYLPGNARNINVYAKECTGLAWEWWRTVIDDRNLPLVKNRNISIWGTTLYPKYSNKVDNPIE

With `CC(=O)N[C@H]1[C@H](O[C@H]2[C@@H](O)[C@@H](CO)O[C@@H](O[C@H]3[C@H](O)[C@@H](O)C(O)O[C@@H]3CO)[C@@H]2O)O[C@H](CO)[C@@H](O[C@@H]2O[C@H](CO)[C@H](O)[C@H](O)[C@H]2O)[C@@H]1O` (mixture of isomers) [LNnT, lacto-N-neotetraose], the figures for the Kd on ILY, at SLO [1] and at PFO were 4.9 µM, 0.00093 µM and 2.8 µM, respectively.

For `C[C@@H]1O[C@@H](O[C@H]2C(O)O[C@H](CO)[C@H](O)[C@@H]2O)[C@@H](O)[C@H](O)[C@@H]1O` (stereo partly shown) [BGH di, blood group H antigen disaccharide], the Kd on SLY was 19 µM; at SLY D4, 26 µM; at SLO [1], 0.603 µM.

At PFO (KD), `O=C[C@H](O)[C@@H](O)[C@H](O[C@@H]1O[C@H](CO)[C@@H](O)[C@H](O)[C@H]1O)[C@H](O)CO` [Cellobiose] showed a Kd of 34 µM.

For `CC(C)CCC[C@@H](C)[C@H]1CC[C@H]2[C@@H]3CC=C4C[C@@H](O)CC[C@]4(C)[C@H]3CC[C@]12C` [Cholesterol], the results for the Kd on Ply (KD), on SLO [1] (KD) and on PFO (KD) were 1 µM, 0.189 µM and 0.296 µM, respectively.

On to `CC(=O)[C@H]1CC[C@H]2[C@@H]3CC=C4C[C@@H](O)CC[C@]4(C)[C@H]3CC[C@]12C` [pregnenolone], for which, at Ply, the Kd is about 0.0004 µM and the “binding in SPR drug library screen” value is reported as “binds”. Besides, on SLO [1], the “binding in SPR drug library screen” value is “binds”.

On to `CC(=O)N[C@H]1[C@H]([C@H](O)[C@H](O)CO)O[C@@](O[C@H]2[C@@H](O)[C@@H](CO)O[C@@H](O[C@@H]([C@H](O[C@@H]3O[C@@H](C)[C@@H](O)[C@@H](O)[C@@H]3O)[C@H](C=O)NC(C)=O)[C@H](O)CO)[C@@H]2O)(C(=O)O)C[C@@H]1O` [sLeX, sialyl-Lewis X], for which the Kd on ILY (KD) is 2.8 µM; at Ply (KD), 1.3 µM; at SLO [1] (KD), 3.1 µM; at PFO (KD) it was 3.9 µM.

Consider “Ply: pneumolysin, CDC toxin from Streptococcus pneumoniae, recombinant His-tagged”, for which the Kd in assay [2] was found to be 0.0223 µM.

Turning to pregnenolone sulfate (sodium salt) [PS], the “competition with cholesterol (competitive SPR)” value on LLO, at Ply and on SLO [1] was “compete directly” each time. The “effect on SLO hemolytic activity” value on SLO [3] is recorded as “inhibit”.

What is called Kd is the free concentration of one partner at which half of the binding sites on the other are occupied at equilibrium, for simple one-to-one binding.
